Data published in ChEMBL document CHEMBL1159295, “Sulfated Polyprenylhydroquinones from the Sponge Ircinia spinosula” (J Nat Prod, 1995).
The source made the active and inactive calls. The calls are words filed in the database; no cut-off is given here.

How the values were obtained:
[1] = system: Micrococcus luteus; assay: Antibacterial activity against Micrococcus luteus DSM 348 at 100 ug/disk by diffusion test; format: functional, organism-based
[2] = system: Bacillus subtilis; assay: Antibacterial activity against Bacillus subtilis DSM 347 at 100 ug/disk by diffusion test; format: functional, organism-based
[3] = system: Artemia salina; assay: Toxicity in Artemia salina; format: organism-based; details: in vivo
[4] = system: Candida albicans; assay: Antifungal activity against Candida albicans DSM 1665 at 100 ug/disk by diffusion test; format: functional, organism-based
[5] = system: Gambusia affinis; assay: Toxicity in Gambusia affinis; format: organism-based; details: in vivo
[6] = system: Pseudomonas aeruginosa; assay: Antibacterial activity against Pseudomonas aeruginosa DSM 1117 at 100 ug/disk by diffusion test; format: functional, organism-based
[7] = system: Escherichia coli; assay: Antibacterial activity against Escherichia coli DSM 1103 at 100 ug/disk by diffusion test; format: functional, organism-based

Row | SMILES | Activity [1] | Activity [2] | LC50 [3] [ppm] | Activity [4] | LC50 [5] [ppm] | Activity [6] | Activity [7]
1 | CC(C)=CCC/C(C)=C/CC/C(C)=C/CC/C(C)=C/CC/C(C)=C/CC/C(C)=C/CC/C(C)=C/CCC1(C)C=Cc2cc(O)ccc2O1 (stereo not drawn) | inactive | inactive | 1.45 | inactive | > 100 | inactive | inactive
2 | CC(C)=CCC/C(C)=C/CC/C(C)=C/CC/C(=C/CC/C(C)=C/CC/C(C)=C/CC/C(C)=C/CC/C(C)=C/Cc1cc(OS(=O)(=O)[O-])ccc1O)CO.[Na+] | inactive | inactive | 0.05 | inactive | 19.6 | inactive | inactive
3 | CC(C)=CCC/C(C)=C/CC/C(C)=C/CC/C(C)=C/CC/C(C)=C/CC/C(C)=C/CC/C(C)=C/CC/C(C)=C/Cc1cc(O)ccc1O | – | – | 0.98 | – | > 100 | – | –
4 | CC(C)=CCC/C(C)=C/CC/C(C)=C/CC/C(C)=C/CC/C(C)=C/CC/C(C)=C/CC/C(C)=C/CC/C(C)=C/Cc1cc(OS(=O)(=O)[O-])ccc1O.[Na+] | inactive | inactive | 0.04 | inactive | 16.9 | inactive | inactive
5 | CC(C)=CCC/C(C)=C/CC/C(C)=C/CC/C(C)=C/CC/C(C)=C/CC/C(C)=C/CCC1(C)C=Cc2cc(O)ccc2O1 (stereo not drawn) | inactive | inactive | 1.15 | inactive | > 100 | inactive | inactive
6 | CC(C)=CCC/C(C)=C/CC/C(C)=C/CC/C(C)=C/CC/C(C)=C/CC/C(C)=C/CC/C(C)=C/Cc1cc(O)ccc1O | – | – | 0.91 | – | > 100 | – | –
7 | CC(C)=CCC/C(C)=C/CC/C(C)=C/CC/C(=C/CC/C(C)=C/CC/C(C)=C/CC/C(C)=C/CCC1(C)C=Cc2cc(O)ccc2O1)CO (stereo not drawn) | inactive | inactive | 32.3 | inactive | > 100 | inactive | inactive
8 | CC(C)=CCC/C(C)=C/CC/C(C)=C/CC/C(=C/CC/C(C)=C/CC/C(C)=C/CC/C(C)=C/CC/C(C)=C/Cc1cc(O)ccc1O)CO | inactive | inactive | 0.35 | inactive | > 100 | inactive | inactive
9 | CC(C)=CCC/C(C)=C/CC/C(C)=C/CC/C(C)=C/CC/C(C)=C/CC/C(C)=C/CC/C(C)=C/Cc1cc(OS(=O)(=O)[O-])ccc1O.[Na+] | inactive | inactive | 0.02 | inactive | 15.6 | inactive | inactive
